Laboratory results: US7999119B2, “Compounds having CRTH2 antagonist activity” (Oxagen Limited, priority 2006, dated 2011)
Several values for one entry are separate records, joined by “and”; a condition that tells them apart may be missing. Identical values can stand only once. Like-named read-outs stand apart in the source and are kept apart here.

Experiments:
[1] = system: PGD2 induced eosinophil shape change; experiment: Human whole blood eosinophil shape change assay; format: cell-based; conditions: Homo sapiens, Eosinophil
Method: Human Whole Blood Eosinophil Shape Change Assay
Compounds 1 to 3 were assayed for their effect on PGD2 induced eosinophil shape change and were compared with Comparator Compounds A to G.
Shape Change Assay in Whole Blood
Compounds (1 μl, 200× final concentration) were added directly to 200 μl whole blood, mixed well and incubated for 15 min, 37° C., 5% CO2. After this time, cell shape was fixed by addition of 300 μl Cytofix™ buffer (BD Biosciences), 15 min on ice. 10 ml RBC lysis buffer was added to the fixed cells, incubated 5 min, at room temperature and centrifuged, 300×g for 5 min. Supernatant (containing lysed red cells) was removed and the lysis step was repeated. Leukocytes were resuspended in 250 μl RPMI/10% FCS and shape change analysed by FACS. Eosinophils were gated out based on their autofluorescence and 2000 eosinophil events were counted per sample. Data were analysed in triplicate.

[2] = Pharmacokinetics following oral administration in the rat; format: in vivo
Method: Investigation of Pharmacokinetics of Compounds of General Formula (I) Following Oral Administration in the Rat
Rats were weighed on the day of dosing.
The test material was prepared as a 0.3 mg/mL suspension in 1% carboxy-methyl-cellulose (CMC).
Three groups of 3 rats were dosed as follows:
Doses were administered as a single oral dose using a gavage tube at a constant dose volume of 10 mL/kg.
At each sampling time point blood samples (approximately 0.3 mL) was taken from a catheter inserted into a lateral tail vein prior to the start of the experiment. The final blood sample (approximately 2 mL) from each animal was taken by cardiac puncture under isoflurane anaesthesia following which the animal was killed by exsanguination. Blood samples were taken into individual heparinised containers. Blood samples were collected at the following times post-dose:
Following collection, the blood samples were centrifuged (approximately 10,000×g, 2 min at 4° C.) and the plasma stored as one aliquot at approximately −20° C. pending analysis of drug concentrations by LC-MS/MS.
The plasma samples were analysed for test material concentrations at BioDynamics using an LC-MS/MS method developed at BioDynamics.

[3] = system: DK-PGD2-induced blood eosinophilia; experiment: Inhibition of DK-PGD2-induced blood eosinophilia in rats; format: in vivo, rat; conditions: female rats, oral dosing 30 min before 10 μg DK-PGD2 intracardiac; ED50 from dose-response curve; the values are: ED50
Method: Evaluation of Compounds of General Formula (I) as Inhibitors of 13,14-dihydro-15-keto prostaglandin D2 (DK-PGD2)-Induced Blood Eosinophilia in Rats
The test compound was dissolved in DMSO and diluted with water to give a final dosing volume of 2 ml/kg.
Female rats (175-250 g; UH colony) were dosed orally with test compound (or vehicle).
30 min after dosing all animals were anaesthetised with isoflurane.
Following induction of anaesthesia, animals receive an intracardiac injection of 10 μg DK-PGD2 in 0.3 ml heparinised (10 U/ml) saline. Control animals received an injection of 0.3 ml heparinised saline.
60 min after the intracardiac injection, animals were injected with an overdose of pentobarbitone sodium and a blood sample was taken (into heparin) by cardiac puncture while the rat was anaesthetised but not dead.
An aliquot of blood (100 μl) was added to Turk's solution and the total leukocyte count determined with a haemocytometer.
A further aliquot of blood (500 μl) was mixed with an equal volume of 4% Dextran (mw 500,000) and the erythrocytes allowed to settle. A cytospin preparation was made from the resulting leukocyte rich fraction.
Cytospin preparations were fixed with methanol (5 min) and stained with May-Grunwald (5 min) and Giemsa (15 min) stains. Finally cytospins were washed in phosphate buffer (pH6.8) and air dried.
Differential leukocyte counts were obtained from the cytospin preparations.
Blood eosinophil numbers were determined from the total leukocyte count and the percentage eosinophils (differential count).
Because it was impractical to generate sufficient data in any given experiment, data were obtained over a number of replicate experiments. Data from these replicate experiments were pooled, to provide at least 5 animals in each group and a dose-response curve fitted following a significance test (Mann Whitney) to determine whether or not DK-PGD2 caused a significant increase in blood eosinophils (GraphPad, Prism). A difference between groups was taken to be significant when P<0.05. ED50 values were calculated from the dose-response curve.

[4] = rat, 3 mg/kg p.o, individual male animals, 3 mg/kg

IC50 ([1]; 10 nm PGD2-induced eosinophil shape change, human whole blood, read-out: Whole Blood IC50): 6 nM | IC50 ([1]; Table 12 summary of whole blood eosinophil shape change IC50, read-out: IC50 (μmol)): 6 nM | IC50 ([1]; whole blood eosinophil shape change IC50 converted to ng/mL, read-out: IC50): 2.7 ng/mL | concentration at 0.25 h ([2]; male, rat, plasma, po, 3 mg/kg, rat, 3 mg/kg oral, 0.25 h, individual male animals, read-out: Concentration in Blood): 836 ng/mL | concentration at 0.25 h ([2]; male, rat, plasma, po, 3 mg/kg, rat, 3 mg/kg oral, 0.25 h, mean, read-out: Concentration in Blood, Mean): 1100 ng/mL | concentration at 0.5 h ([2]; male, rat, plasma, po, 3 mg/kg, rat, 3 mg/kg oral, 0.5 h, individual male animals, read-out: Concentration in Blood): 2060 ng/mL | concentration at 0.5 h ([2]; male, rat, plasma, po, 3 mg/kg, rat, 3 mg/kg oral, 0.5 h, mean, read-out: Concentration in Blood, Mean): 2250 ng/mL | concentration at 1 h ([2]; male, rat, plasma, po, 3 mg/kg, rat, 3 mg/kg oral, 1 h, individual male animals, read-out: Concentration in Blood): 2490 ng/mL | concentration at 1 h ([2]; male, rat, plasma, po, 3 mg/kg, rat, 3 mg/kg oral, 1 h, mean, read-out: Concentration in Blood, Mean): 3140 ng/mL | concentration at 2 h ([2]; male, rat, plasma, po, 3 mg/kg, rat, 3 mg/kg oral, 2 h, individual male animals, read-out: Concentration in Blood): 4320 ng/mL | concentration at 2 h ([2]; male, rat, plasma, po, 3 mg/kg, rat, 3 mg/kg oral, 2 h, mean, read-out: Concentration in Blood, Mean): 4080 ng/mL | concentration at 4 h ([2]; male, rat, plasma, po, 3 mg/kg, rat, 3 mg/kg oral, 4 h, individual male animals, read-out: Concentration in Blood): 3130 ng/mL | concentration at 4 h ([2]; male, rat, plasma, po, 3 mg/kg, rat, 3 mg/kg oral, 4 h, mean, read-out: Concentration in Blood, Mean): 2400 ng/mL | concentration at 6 h ([2]; male, rat, plasma, po, 3 mg/kg, rat, 3 mg/kg oral, 6 h, individual male animals, read-out: Concentration in Blood): 1330 ng/mL | concentration at 6 h ([2]; male, rat, plasma, po, 3 mg/kg, rat, 3 mg/kg oral, 6 h, mean, read-out: Concentration in Blood, Mean): 1140 ng/mL | concentration at 8 h ([2]; male, rat, plasma, po, 3 mg/kg, rat, 3 mg/kg oral, 8 h, individual male animals, read-out: Concentration in Blood): 1160 ng/mL | concentration at 8 h ([2]; male, rat, plasma, po, 3 mg/kg, rat, 3 mg/kg oral, 8 h, mean, read-out: Concentration in Blood, Mean): 847 ng/mL | concentration at 12 h ([2]; male, rat, plasma, po, 3 mg/kg, rat, 3 mg/kg oral, 12 h, mean, read-out: Concentration in Blood, Mean): 277 ng/mL | concentration at 24 h ([2]; male, rat, plasma, po, 3 mg/kg, rat, 3 mg/kg oral, 24 h, mean, read-out: Concentration in Blood, Mean): 16.1 ng/mL | AUC(0-inf) ([2]; male, rat, plasma, po, 3 mg/kg, rat, 3 mg/kg p.o, individual male animals, read-out: AUCinf): 24400 ng·h/mL | Cmax ([2]; male, rat, plasma, po, 3 mg/kg, rat, 3 mg/kg p.o, individual male animals, read-out: Cmax): 4320 ng/mL | Tmax ([2]; male, rat, plasma, po, 3 mg/kg, rat, 3 mg/kg p.o, individual male animals, read-out: Tmax): 2 h | half-life ([2]; male, rat, plasma, po, 3 mg/kg, rat, 3 mg/kg p.o, individual male animals, read-out: T½ (converted)): 3.26 h | AUC(0-inf) ([2]; male, rat, plasma, po, 3 mg/kg, rat, 3 mg/kg p.o, mean, summary without unit (Table 12), read-out: AUCinf (mean)): 21100 ng·h/mL | Cmax ([2]; male, rat, plasma, po, 3 mg/kg, rat, 3 mg/kg p.o, mean, summary without unit (Table 12), read-out: Cmax (mean)): 4080 ng/mL | AUC(0-inf) ([2]; male, rat, plasma, po, 3 mg/kg, rat, 3 mg/kg p.o, mean, read-out: AUCinf, Mean): 21100 ng·h/mL | Cmax ([2]; male, rat, plasma, po, 3 mg/kg, rat, 3 mg/kg p.o, mean, read-out: Cmax, Mean): 4080 ng/mL | Tmax ([2]; male, rat, plasma, po, 3 mg/kg, rat, 3 mg/kg p.o, mean, read-out: Tmax, Mean): 2 h | half-life ([2]; male, rat, plasma, po, 3 mg/kg, rat, 3 mg/kg p.o, mean, read-out: T½, Mean (converted)): 2.8 h | Fold over IC50 at 12 h ([2]; mean blood concentration at 12 h (rat, 3 mg/kg p.o.) divided by whole blood IC50 in ng/ml): 102 | Concentration in Blood ([2]; rat, 3 mg/kg oral, 0.25 h, individual male animals, 3 mg/kg): 1130.7 ng/mL and 1337.2 ng/mL | Concentration in Blood ([2]; rat, 3 mg/kg oral, 0.5 h, individual male animals, 3 mg/kg): 2205.2 ng/mL and 2487.5 ng/mL | Concentration in Blood ([2]; rat, 3 mg/kg oral, 1 h, individual male animals, 3 mg/kg): 3547.8 ng/mL and 3393.7 ng/mL | Concentration in Blood ([2]; rat, 3 mg/kg oral, 2 h, individual male animals, 3 mg/kg): 3685.1 ng/mL and 4221.0 ng/mL | Concentration in Blood ([2]; rat, 3 mg/kg oral, 4 h, individual male animals, 3 mg/kg): 2023.1 ng/mL and 2053.8 ng/mL | Concentration in Blood ([2]; rat, 3 mg/kg oral, 6 h, individual male animals, 3 mg/kg): 995.0 ng/mL and 1098.0 ng/mL | Concentration in Blood ([2]; rat, 3 mg/kg oral, 8 h, individual male animals, 3 mg/kg): 699.5 ng/mL and 678.5 ng/mL | Concentration in Blood ([2]; rat, 3 mg/kg oral, 24 h, individual male animals, 3 mg/kg): 38.2 ng/mL and 0.0 ng/mL and 10.1 ng/mL | AUCinf [2, 4]: 17738 ng·h/mL and 19110 ng·h/mL | Cmax [2, 4]: 3685 ng/mL and 4221 ng/mL | T½ [2, 4]: 2.26 h and 2.62 h
Compound: Cc1c(Cc2ccccc2S(=O)(=O)c2ccc(F)cc2)c2cc(F)ccc2n1CC(=O)O [Compound 3, 2-(5-fluoro-3-(2-(4-fluorophenylsulfonyl)benzyl)-2-methyl-1H-indol-1-yl)acetic acid]
Concentration in Blood ([2]; rat, 3 mg/kg oral, 12 h, individual male animals, 3 mg/kg): 465.3 ng/mL and 163.3 ng/mL and 201.1 ng/mL | Potency in inhibition of DK-PGD2-induced blood eosinophilia [3]: 0.01 mg/kg
